Reference: patent US9802897B2, “Amidopyridinol derivative or pharmaceutically acceptable salt thereof and pharmaceutical composition comprising same as active component” (Research Cooperation Foundation of Yeungnam University, priority 2013, dated 2017)
Marks after values point to notes of the source that are not given here. Non-standard residues stand in square brackets, D forms with d. Residues, ends and D or L forms follow the SMILES beside them. *: point of attachment. Sta = CC(C)C[C@H](N)[C@@H](O)CC(=O)O; Isovaleryl = CC(C)CC(=O)*; Cbz = O=C(OCc1ccccc1)*; CH2F = FC*

What was measured:
A549 lung cancer cells = assay: CAM inoculated with A549 lung cancer cells: angiogenesis and tumor growth; assay type: in vivo, chicken; conditions: A549 on CAM, 5 days
Experimental: To confirm inhibitory effects on angiogenesis through in vivo experiments, the CAM analysis was carried out (refer to Nguyen M et al., Microvascular Res., 47, pp 31-40, 1994). A fertilized egg of a chicken was cultured in conditions maintaining a temperature of 37° C. and relative humidity of 55%. On the 9th day of the culturing, a first small hole was made on an air sac part using a hypodermic needle (Green Cross Medical Corp., Korea), and then, a second hole was made on a flat part of the fertilized egg to make a window thereon. Air was removed through the first hole, i.e., the air sac part, and accordingly, the CAM was separated from the shell of the fertilized egg. Then, a grinding wheel (Multipro 395JA, Dremel, Mexico) was used to cut the air sac part, thereby making a window thereon. Meanwhile, A549 lung cancer cells were mixed with matrigel at a ratio of 1:1, and then, the mixture was treated with Compounds 8a, 8b, and 8g, respectively, followed by being inoculated at a density of 1.5×10^6 cells/CAM.
After 5 days of the inoculation, the CAM part on which tumors were formed was isolated, and then, washed with PBS. The Stemi SV6 stereomicroscope (Carl Zeiss, Germany) and the Image-Pro Plus software (Media Cybernetics; Silver Spring, Md., USA) were used to capture images of the CAM part, so as to measure the number of the blood vessels and to analyze data obtained therefrom.

[1] = tested on: VEGF-induced angiogenesis in chicken chorioallantoic membrane (CAM); assay: CAM analysis of VEGF-induced angiogenesis; assay type: in vivo; conditions: VEGF (20 ng/CAM) + Compound (0.01 nmol/CAM), number of blood vessels after 3 days; for inhibition in vivo at 0.01 nmol/CAM: Gallus gallus, 72 h, read-out: Inhibitory rates (%)
Experimental: To confirm inhibitory effects on angiogenesis through in vivo experiments, the chorioallantoic membrane (CAM) analysis was carried out (refer to Nguyen M et al., Microvascular Res., 47, pp 31-40, 1994). A fertilized egg of a chicken was cultured in conditions maintaining a temperature of 37° C. and relative humidity of 55%. On the 10th day of the culturing, a first small hole was made on an air sac part using a hypodermic needle (Green Cross Medical Corp., Korea), and then, a second hole was made on a flat part of the fertilized egg to make a window thereon. Air was removed through the first hole, i.e., the air sac part, and accordingly, the CAM was separated from the shell of the fertilized egg. Then, a grinding wheel (Multipro 395JA, Dremel, Mexico) was used to cut the air sac part, thereby making a window thereon. Next, the whatman filter disk #1 (Whatman Company, USA) was treated with 3 mg/mL of cortisone acetate, dried, and then, wet by VEGF at a concentration of 20 ng/CAM. The filter disk was placed on blood vessels through the window, and then, compounds prepared according to Examples above were each dissolved in DMSO, diluted with PBS, and then, treated for each concentration. After 3 days of treating the compounds, the CAM part on which the filter disk was placed was isolated, and then, washed with PBS. The Stemi SV6 stereomicroscope (Carl Zeiss, Germany) and the Image-Pro Plus software (Media Cybernetics; Silver Spring, Md., USA) were used to capture images of the CAM part, so as to measure the number of the blood vessels and to analyze data obtained therefrom.

HT-29 cells / U937 cells = assay: TNF-α-induced adhesion of HT-29 intestinal epithelial cells and U937 mononuclear cells; assay type: cell-based, human; conditions: 1 μM, pre-treated 1 hour, TNF-α 10 ng/ml; for inhibition at 1 µM: Homo sapiens, read-out: Inhibitory rates (%)
Experimental: HT-29 cells were cultured in a 24-well plate at a concentration of […] cells/cm^2, and meanwhile, amidopyridinol compounds 8a to 8z were pre-treated for 1 hour at each concentration in a serum-free medium supplemented only with 1% PS. Next, 10 ng/ml of TNF-α was treated therewith to allow a reaction at a temperature of 37° C. for 3 hours. After the completion of the reaction, the medium of the HT-29 cells was removed, and then, the HT-29 cells were washed with PBS once. Afterwards, U937 cells, which were treated and reacted with 10 μg/mL of BCECF-AM at a temperature of 37° C. for 30 minutes, were allowed to react with the HT-29 cells at temperature of 37° C. for 1 hour. Then, to remove U937 cells that were not adhered to the HT-29 cells, the reacted cells were washed with PBS twice. In terms of cell dissolution, 0.1% Triton X-100 in 0.1M Tris was allowed to react with the cells for 30 minutes at room temperature, and then, the cells were subjected to quantify by measuring fluorescence thereof using the Fluostar optima microplate reader (BMG Labtechnologies, Germany).

MDA-MB-231 cells = assay: Transwell invasion assay of MDA-MB-231 breast cancer cells; assay type: cell-based; conditions: for invasion of MDA-MB-231 cells (in words): cathepsin inhibitors vs cells not treated with inhibitors
Experimental: The invasion assay was performed by using the transwell insert (BD FALCON, Bedford, USA) equipped with a 8 μm pore-sized filter. An upper part of the transwell insert filter was coated with 20 μl of matrigel (1 mg/ml) while a bottom part of the same was coated with 30 μl of type I collagen (0.5 mg/ml). The MDA-MB-231 cells (5×10^5 cells/100 μl) were added to the insert chamber, and then, each inhibitor was also added thereto. To induce invasion of the cells, a medium supplemented with 5% FBS was added to each well of the bottom chamber to allow a reaction at a temperature of 37° C. in a cell incubator. 18 hours later, the cells remained after removing the solution in the insert chamber were removed by using a cotton swab, whereas cells at the bottom of the membrane were fixed with methanol and stained with hematoxylin and eosin. The cells present at the membrane were observed through a microscope, and the number of the cells was counted in the selected 5 fields at the resolution of 200×.
According to the same manner as in Experimental Example 7, inhibitory effects of the amidopyridinol derivatives synthesized in Examples above on invasion of breast cancer cells, e.g., MDA-MB-231, were reviewed. Here, to compare with, inhibitory effects of aminopyridinol derivatives, e.g., 6-amino-2,4,5-trimethylpyridine-3-ol (BJ-1101) and 6-diphenylamino-2,4,5-trimethylpyridine-3-ol (BJ-1201), on invasion of breast cancer cells, e.g., MDA-MB-231, were reviewed.

[2] = 1 μM, MDA-MB-231 invasion, 5% FBS, 18 hours

CN(C)c1ccc(/C=C2\C(=O)Nc3ccccc32)cc1 [SU4312, reference compound]
Inhibition rates of angiogenesis (%) (A549 lung cancer cells; 0.01 pmol/CAM): 20.8 ± 1.4 % | Inhibition rates of tumor growth (%) (A549 lung cancer cells; 0.01 pmol/CAM): 16.2 ± 20.4% | Inhibition rates of angiogenesis (%) (A549 lung cancer cells; 0.1 pmol/CAM): 25.1 ± 2.8 % | Inhibition rates of tumor growth (%) (A549 lung cancer cells; 0.1 pmol/CAM): 23.4 ± 9.3% | Inhibition rates of angiogenesis (%) (A549 lung cancer cells; 1.0 pmol/CAM): 36.2 ± 1.9 % | Inhibition rates of tumor growth (%) (A549 lung cancer cells; 1.0 pmol/CAM): 26.8 ± 4.9% | Inhibitory rates (%) [1]: 74.6 ± 8.5 %

Cc1nc(NC(=O)CC(C)C)c(C)c(C)c1O [Compound 8e, N-(5-hydroxy-3,4,6-trimethylpyridine-2-yl)-3-methylbutanamide]
inhibition at 1 µM (HT-29 cells / U937 cells): 64.2% | inhibition in vivo at 0.01 nmol/CAM [1]: 75.6 ± 8.9%

Cc1nc(NC(=O)C=Cc2ccccc2)c(C)c(C)c1O [Compound 8z, N-(5-hydroxy-3,4,6-trimethylpyridine-2-yl)cinnamide]
Inhibitory rates (%) (HT-29 cells / U937 cells): 25.2%

Cc1nc(NC(=O)C(Cl)Cl)c(C)c(C)c1O [Compound 8y, 2,2-dichloro-N-(5-hydroxy-3,4,6-trimethylpyridine-2-yl)acetamide]
inhibition at 1 µM (HT-29 cells / U937 cells): 60.6%

Cc1nc(NC(=O)c2ccc3c(c2)OCO3)c(C)c(C)c1O [Compound 8o, N-(5-hydroxy-3,4,6-trimethylpyridine-2-yl)benzo[d][1,3]dioxol-5-carboxamide]
inhibition at 1 µM (HT-29 cells / U937 cells): 40.2% | inhibition in vivo at 0.01 nmol/CAM [1]: 64.8 ± 17.4%

Cc1nc(NC(=O)CC(C)CC(C)(C)C)c(C)c(C)c1O (centres unmarked) [Compound 8w, N-(5-hydroxy-3,4,6-trimethylpyridine-2-yl)-3,5,5-trimethylhexanamide]
inhibition at 1 µM (HT-29 cells / U937 cells): 54.5%

CC(C)C[C@H](NC(=O)[C@H](Cc1ccccc1)NC(=O)OCc1ccccc1)C(=O)C=O [Z-FL-COCHO]
Inhibition rates (%) (MDA-MB-231 cells; 0.4 nM, MDA-MB-231 invasion, 5% FBS, 18 hours): 34.36 ± 3.00 % | Inhibition rates (%) (MDA-MB-231 cells; 2 nM, MDA-MB-231 invasion, 5% FBS, 18 hours): 44.67 ± 2.61 % | Inhibition rates (%) (MDA-MB-231 cells; 10 nM, MDA-MB-231 invasion, 5% FBS, 18 hours): 50.12 ± 2.76 % | invasion of MDA-MB-231 cells (in words) (MDA-MB-231 cells): decreased invasion of the cells

O=C(NC(Cc1ccccc1)C(=O)NC(Cc1ccccc1)C(=O)CF)OCc1ccccc1 (stereo not drawn) [Z-FF-FMK] (Cbz-Phe-Phe-CH2F; configuration not given here)
Inhibition rates (%) (MDA-MB-231 cells; 0.04 μM, MDA-MB-231 invasion, 5% FBS, 18 hours): 3.42 ± 2.08% | Inhibition rates (%) (MDA-MB-231 cells; 0.2 μM, MDA-MB-231 invasion, 5% FBS, 18 hours): 6.97 ± 2.35% | Inhibition rates (%) (MDA-MB-231 cells; [2]): 10.16 ± 2.16 %

CC(C)(F)C[C@H](N[C@@H](c1ccc(-c2ccc(S(C)(=O)=O)cc2)cc1)C(F)(F)F)C(=O)NC1(C#N)CC1 [Odanacatib]
inhibition at 0.04 µM (MDA-MB-231 cells; Homo sapiens, 0.04 μM, MDA-MB-231 invasion, 5% FBS, 18 hours, read-out: Inhibition rates (%)): 14.9 ± 4.14% | inhibition at 0.2 µM (MDA-MB-231 cells; Homo sapiens, 0.2 μM, MDA-MB-231 invasion, 5% FBS, 18 hours, read-out: Inhibition rates (%)): 19.9 ± 3.77% | inhibition at 1 µM (MDA-MB-231 cells; Homo sapiens, 1 μM, MDA-MB-231 invasion, 5% FBS, 18 hours, read-out: Inhibition rates (%)): 22.3 ± 3.7%

Cc1nc(NC(=O)Cc2ccc(Cl)cc2)c(C)c(C)c1O [Compound 8x, 2-(4-chlorophenyl)-N-(5-hydroxy-3,4,6-trimethylpyridine-2-yl)acetamide]
inhibition at 1 µM (HT-29 cells / U937 cells): 41.5%

Cc1nc(NC(=O)Cc2ccccc2)c(C)c(C)c1O [Compound 8i, N-(5-hydroxy-3,4,6-trimethylpyridine-2-yl)-2-penylacetamide]
Inhibitory rates (%) (HT-29 cells / U937 cells): 56.6* % | Inhibitory rates (%) [1]: 69.6 ± 11.0 %

Cc1nc(NC(=O)C2CCCCC2)c(C)c(C)c1O [Compound 8h, N-(5-hydroxy-3,4,6-trimethylpyridine-2-yl)cyclohexane carboxamide]
inhibition at 1 µM (HT-29 cells / U937 cells): 64.5% | inhibition in vivo at 0.01 nmol/CAM [1]: 76.3 ± 7.2%

Cc1nc(NC(=O)c2cccc(O)c2)c(C)c(C)c1O [Compound 8v, 3-hydroxy-N-(5-hydroxy-3,4,6-trimethylpyridine-2-yl)benzamide]
inhibition at 1 µM (HT-29 cells / U937 cells): 54.1%

CC(C)CC(=O)N[C@H](C(=O)N[C@H](C(=O)N[C@@H](CC(C)C)[C@@H](O)CC(=O)N[C@@H](C)C(=O)N[C@@H](CC(C)C)[C@@H](O)CC(=O)O)C(C)C)C(C)C [Pepstatin A] (Isovaleryl-VV[Sta]A[Sta]-OH)
Inhibition rates (%) (MDA-MB-231 cells; [2]): 3.42 ± 0.42% | Inhibition rates (%) (MDA-MB-231 cells; 5 μM, MDA-MB-231 invasion, 5% FBS, 18 hours): 4.04 ± 0.33% | Inhibition rates (%) (MDA-MB-231 cells; 25 μM, MDA-MB-231 invasion, 5% FBS, 18 hours): 5.54 ± 0.77%

COc1ccc(C(=O)Nc2nc(C)c(O)c(C)c2C)cc1 [Compound 8m, N-(5-hydroxy-3,4,6-trimethylpyridine-2-yl)-4-methoxybenzamide]
inhibition at 1 µM (HT-29 cells / U937 cells): 13.9% | inhibition in vivo at 0.01 nmol/CAM [1]: 69.7 ± 4.5%

CCCNC(=O)[C@H]1O[C@@H]1C(=O)N[C@H](C(=O)N1CCC[C@H]1C(=O)OC)[C@@H](C)CC [CA-074 Me]
Inhibition rates (%) (MDA-MB-231 cells; 1 nM, MDA-MB-231 invasion, 5% FBS, 18 hours): 19.73 ± 2.31 % | Inhibition rates (%) (MDA-MB-231 cells; 5 nM, MDA-MB-231 invasion, 5% FBS, 18 hours): 34.26 ± 2.30 % | Inhibition rates (%) (MDA-MB-231 cells; 25 nM, MDA-MB-231 invasion, 5% FBS, 18 hours): 44.45 ± 1.43 % | invasion of MDA-MB-231 cells (in words) (MDA-MB-231 cells): decreased invasion of the cells

Cc1nc(NC(=O)c2ccccc2)c(C)c(C)c1O [Compound 8k, N-(5-hydroxy-3,4,6-trimethylpyridine-2-yl)benzamide]
inhibition at 1 µM (HT-29 cells / U937 cells): 18.5% | inhibition in vivo at 0.01 nmol/CAM [1]: 77.3 ± 13.1%
